Columns and labels:
[1] = tested on: Tetranychus urticae; assay: acaricidal effect for Tetranychus urticae (spray on string bean); type: in vivo; conditions: 500 ppm, female imagoes, survivors counted on second and seventh day after treatment, 25° C.
Protocol: 2) acaricidal effect for Tetranychus urticae Ten female imagoes Tetranychus urticae were set free on a string bean wherein first leaves had just developed. On the following day, the pesticidal solution, which was prepared by dissolving 5 mg of test compound (represented by the compound Nos. in the above Examples) in 0.5 ml of acetone containing Tween 20 (trade name) and then diluting it to the prescribed concentration (500 ppm) with Dain water diluted 5000-fold, was sprayed with spray gun in the amounts wherein the pesticidal solution dripped. The string bean was left in a temperature-controlled breeding room (25° C.). On the second and seventh day after treatment, the number of surviving Tetranychus urticae was examined. The rate of decrease was calculated by the following formula, and the result was shown in table 40. rate of decrease (%)=(1−(S2/(5.59×(10+(10+S1)/2+S1))))×100 • S1; the number of surviving imagoes on the second day after S2; the number of surviving imagoes on the seventh day after […]

[2] = tested on: Plutella xylostella; assay: insecticidal effect for Plutella xylostella (cabbage leaf dip); type: in vivo; conditions: 100 ppm, second-instar larvae, fifth day after, 24° C.
Protocol: 1) insecticidal effect for Plutella xylostella One 7 to 8-leave stage foliage leaf of cabbage was cut off and dipped in a pesticidal solution for a few seconds, which was prepared by dissolving 5 mg of test compound (represented by the compound Nos. in the above Examples) in 0.5 ml of acetone containing Tween 20 (trade name) and then diluting it to the prescribed concentration (100 ppm) with Dain water diluted 5000-fold. After drying the pesticidal solution, the leaf was put into an ice cream cup (180 ml), and ten second-instar larvae of Plutella xylostella were set free. The cup was left in a temperature-controlled breeding room (24° C.). On the fifth day after, the number of surviving Plutella xylostella was examined. The rate of dead pests was calculated by the following formula, and the result was shown in table 39. rate of dead pests (%)=(number of dead pests/number of test pests)×100

Row | SMILES | Rate of decrease (%) [1] | Rate of dead pests (%) [2] | melting point
1 | Cc1nc(-c2c(F)cccc2Cl)nn1-c1ccc(C(C)Oc2ncc(C(F)(F)F)cc2Cl)cc1 (racemic) [T-267] | 99% | 100% | –
2 | Cc1nc(-c2ccccc2F)cn1-c1ccc(COc2ncc(C(F)(F)F)cc2Cl)cc1 [I-63, 1-[4-[3-chloro-5-(trifluoromethyl)pyridin-2-yloxymethyl]phenyl]-4-(2-fluorophenyl)-2-methylimidazole] | – | – | 109 °C
3 | Fc1ccccc1-c1cn(-c2ccc(COc3ncc(C(F)(F)F)cc3Cl)cc2)c(Cl)n1 [I-77] | 95% | – | –
4 | O=Cc1nc(-c2ccccc2F)cn1-c1ccc(COc2ncc(C(F)(F)F)cc2Cl)cc1 [I-82] | 99% | – | –
5 | Fc1cccc(Cl)c1-c1cc(Cl)n(-c2ccc(COc3ncc(C(F)(F)F)cc3Cl)cc2)n1 [P-21, 5-chloro-3-(2-chloro-6-fluorophenyl)-1-[4-(3-chloro-5-trifluoromethylpyridin-2-yloxymethyl)phenyl]pyrazole] | 99% | 100% | –
6 | Cc1nc(-c2c(F)cccc2Cl)nn1-c1ccc(COc2ccc(Cl)cc2)cc1 [T-3] | 98% | 100% | –
7 | Cc1nc(-c2c(F)cccc2Cl)nn1-c1ccc(COc2ccc(C(F)(F)F)cc2)cc1 [T-5] | 96% | 95% | –
8 | Cc1nc(-c2c(F)cccc2Cl)nn1-c1ccc(COc2ccc(Cl)cc2Cl)cc1 [T-9] | 99% | 100% | –
9 | Cc1nc(-c2c(F)cccc2Cl)nn1-c1ccc(COc2ccc(C(F)(F)F)cc2Cl)cc1 [T-12] | 98% | 100% | –
10 | Cc1nc(-c2c(F)cccc2Cl)nn1-c1ccc(COc2ccc(C(F)(F)F)cn2)cc1 [T-17] | – | 100% | –
11 | Cc1nc(-c2c(F)cccc2Cl)nn1-c1ccc(COc2ccc(Cl)cn2)cc1 [T-18] | 97% | 100% | –
12 | Cc1nc(-c2c(F)cccc2Cl)nn1-c1ccc(COc2ncc(Cl)cc2Cl)cc1 [T-20] | 98% | 100% | –
13 | Cc1nc(-c2c(F)cccc2Cl)nn1-c1ccc(COc2ncc(C(F)(F)F)cc2Cl)cc1 [T-21, 3-(2-chloro-6-fluorophenyl)-1-[4-(3-chloro-5-trifluoromethylpyridin-2-yloxymethyl)phenyl]-5-methyl-1H-1,2,4-triazole] | 100% | 100% | –
14 | Cc1nc(-c2c(F)cccc2Cl)nn1-c1ccc(COc2ncc(Cl)cn2)cc1 [T-24] | 97% | – | –
15 | Cc1nc(-c2c(F)cccc2Cl)nn1-c1ccc(COc2nnc(C(F)(F)F)s2)cc1 [T-25] | 99% | – | –
16 | Cc1nc(-c2c(F)cccc2Cl)nn1-c1ccc(COc2ncc(C(F)(F)F)cc2Cl)cn1 [T-28] | 98% | 100% | –
17 | Cc1nc(-c2c(F)cccc2Cl)nn1-c1ccc(COc2ncc(C(F)(F)F)cc2Cl)cc1Cl [T-30] | 99% | 100% | –
18 | Nc1nc(-c2c(F)cccc2Cl)nn1-c1ccc(COc2ncc(C(F)(F)F)cc2Cl)cc1 [T-40] | 97% | 95% | –
19 | Fc1cccc(Cl)c1-c1nc(Cl)n(-c2ccc(COc3ncc(C(F)(F)F)cc3Cl)cc2)n1 [T-43] | 100% | 100% | –
20 | COc1nc(-c2c(F)cccc2Cl)nn1-c1ccc(COc2ncc(C(F)(F)F)cc2Cl)cc1 [T-46] | 99% | 100% | –
21 | Fc1cccc(Cl)c1-c1nc(C(F)(F)F)n(-c2ccc(COc3ncc(C(F)(F)F)cc3Cl)cc2)n1 [T-47] | 100% | 100% | –
22 | CCc1nc(-c2c(F)cccc2Cl)nn1-c1ccc(COc2ncc(C(F)(F)F)cc2Cl)cc1 [T-48] | 99% | 100% | –
23 | N#Cc1nc(-c2c(F)cccc2Cl)nn1-c1ccc(COc2ncc(C(F)(F)F)cc2Cl)cc1 [T-52] | 97% | 100% | –
24 | Fc1cccc(Cl)c1-c1nc(CCl)n(-c2ccc(COc3ncc(C(F)(F)F)cc3Cl)cc2)n1 [T-53] | 99% | – | –
25 | FCc1nc(-c2c(F)cccc2Cl)nn1-c1ccc(COc2ncc(C(F)(F)F)cc2Cl)cc1 [T-54] | 98% | – | –
26 | COCc1nc(-c2c(F)cccc2Cl)nn1-c1ccc(COc2ncc(C(F)(F)F)cc2Cl)cc1 [T-56] | 98% | 100% | –

Row | SMILES | Rate of decrease (%) [1] | Rate of dead pests (%) [2] | melting point
27 | Cc1nc(-c2c(F)cccc2F)nn1-c1ccc(COc2ccc(C(F)(F)F)cn2)cc1 [T-66] | – | 95% | –
28 | Cc1cccc(C)c1-c1nc(C)n(-c2ccc(COc3ncc(C(F)(F)F)cc3Cl)cc2)n1 [T-74] | 97% | 100% | –
29 | FC(F)(F)c1cnc(OCc2ccc(-n3cnc(-c4cc(Cl)nc(Cl)c4)n3)cc2)c(Cl)c1 [T-75] | 99% | – | –
30 | Fc1cccc(F)c1-c1ncn(-c2ccc(COc3ncc(C(F)(F)F)cc3Cl)cc2)n1 [T-76] | 96% | – | –
31 | Fc1cccc(F)c1-c1nc(Cl)n(-c2ccc(COc3ncc(C(F)(F)F)cc3Cl)cc2)n1 [T-78] | 98% | 100% | –
32 | CCc1nc(-c2c(F)cccc2F)nn1-c1ccc(COc2ncc(C(F)(F)F)cc2Cl)cc1 [T-88] | 98% | 95% | –
33 | CC(C)c1nc(-c2c(F)cccc2Cl)nn1-c1ccc(COc2ncc(C(F)(F)F)cc2Cl)cc1 [T-92] | 98% | – | –
34 | Fc1cccc(Cl)c1-c1nc(C2CC2)n(-c2ccc(COc3ncc(C(F)(F)F)cc3Cl)cc2)n1 [T-93] | 97% | – | –
35 | C=Cc1nc(-c2c(F)cccc2Cl)nn1-c1ccc(COc2ncc(C(F)(F)F)cc2Cl)cc1 [T-106] | 97% | 100% | –
36 | O=Cc1nc(-c2c(F)cccc2Cl)nn1-c1ccc(COc2ncc(C(F)(F)F)cc2Cl)cc1 [T-107] | 100% | 100% | –
37 | Fc1cccc(Cl)c1-c1nc(C(F)F)n(-c2ccc(COc3ncc(C(F)(F)F)cc3Cl)cc2)n1 [T-120] | 99% | 100% | –
38 | Cc1nc(-c2cccnc2Cl)nn1-c1ccc(COc2ncc(C(F)(F)F)cc2Cl)cc1 [T-130] | 98% | – | –
39 | Cc1nc(-c2c(Cl)cc(Cl)cc2Cl)nn1-c1ccc(COc2ncc(C(F)(F)F)cc2Cl)cc1 [T-131] | 100% | – | –
40 | C#Cc1nc(-c2c(F)cccc2Cl)nn1-c1ccc(COc2ncc(C(F)(F)F)cc2Cl)cc1 [T-132] | 100% | – | –
41 | Cc1nc(-c2c(F)cccc2C(F)(F)F)nn1-c1ccc(COc2ncc(C(F)(F)F)cc2Cl)cc1 [T-133] | 99% | 95% | –
42 | Cc1nc(-c2c(F)c(F)cc(F)c2F)nn1-c1ccc(COc2ncc(C(F)(F)F)cc2Cl)cc1 [T-134] | 100% | – | –
43 | Cc1nc(-c2c(F)cc(F)cc2F)nn1-c1ccc(COc2ncc(C(F)(F)F)cc2Cl)cc1 [T-135] | 96% | – | –
44 | Cc1nc(-c2ccccc2OC(F)(F)F)nn1-c1ccc(COc2ncc(C(F)(F)F)cc2Cl)cc1 [T-136] | 99% | – | –
45 | Cc1nc(-c2c(F)ccc(Cl)c2F)nn1-c1ccc(COc2ncc(C(F)(F)F)cc2Cl)cc1 [T-137] | 99% | – | –
46 | Cc1nc(-c2c(F)ccc(F)c2Cl)nn1-c1ccc(COc2ncc(C(F)(F)F)cc2Cl)cc1 [T-138] | 99% | – | –
47 | Cc1nc(-c2c(F)cccc2Cl)nn1-c1ccc(COc2ncc(C(F)(F)F)cn2)cc1 [T-139] | 97% | – | –
48 | COc1cccc(OC)c1-c1nc(C)n(-c2ccc(COc3ncc(C(F)(F)F)cc3Cl)cc2)n1 [T-140] | 99% | – | –
49 | COC(=O)c1nc(-c2c(F)cccc2Cl)nn1-c1ccc(COc2ncc(C(F)(F)F)cc2Cl)cc1 [T-143] | 98% | – | –
50 | CC1=CN(Cc2ccc(COc3ncc(C(F)(F)F)cc3Cl)cc2)NC(c2c(F)cccc2Cl)=N1 [T-171, 3-(2-chloro-6-fluorophenyl)-1-[4-(3-chloro-5-trifluoromethyl-2-pyridyloxymethyl)phenylmethyl]-5-methyl-1H-1,2,4-triazine] | 99% | – | –
51 | Cc1nc(-c2c(F)cccc2Cl)nn1Cc1ccc(COc2ncc(C(F)(F)F)cc2Cl)cc1 [T-172] | 98% | – | –
52 | Cc1nc(-c2c(F)cccc2Cl)nn1-c1ccc(Oc2ncc(C(F)(F)F)cc2Cl)cc1 [T-264] | 98% | – | –

— patent US20050009834A1, “Azole compounds, process for preparation of the same and use thereof” (priority 2001, published 2005)
